These compounds were tested on BV-173. Conditions: 72 h.
In short: (§1)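 Fifteen myeloid leukaemia cell lines were seeded in RPMI 1640 at densities titrated to the linear growth range and placed in 384-well plates with acoustically pre-printed compounds at five tenfold doses from 1 to 10,000 nM, in duplicate. After 72 h at 37 °C with 5% CO2, luminescent ATP viability was normalised to vehicle and to a positive control at 10 µM, and curves were fitted with a four-parameter log-logistic model. The IC50 was obtained from these fits.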

Structure (SMILES)	IC50 (cell viability) [µM]
CN(Cc1cnc2nc(N)nc(N)c2n1)c1ccc(C(=O)N[C@@H](CCC(=O)O)C(=O)O)cc1 [Methotrexate]	0.0323
COC(=O)c1cc2c(C(F)(F)F)cc(-c3ccccc3)cc2n1O [NHI-2]	> 10
CCCCCCCC/C=C\CCCCCCCC(=O)Nc1ccccc1 [Octadec-9-Enoic Acid Phenylamide]	> 10
CC[C@H](C)[C@H](N)C(=O)N1CCSC1 [P32/98]	> 10
CC(=O)Nc1nc(C)c(-c2ccc(Cl)c(S(=O)(=O)NCCO)c2)s1 [PIK93]	0.792
OC[C@H]1O[C@@H](n2cnc3c2N=CNC[C@H]3O)C[C@@H]1O [Pentostatin]	> 10
CC(C)CC(=O)N[C@H](C(=O)N[C@H](C(=O)N[C@@H](CC(C)C)[C@@H](O)CC(=O)N[C@@H](C)C(=O)N[C@@H](CC(C)C)[C@@H](O)CC(=O)O)C(C)C)C(C)C [Pepstatin A]	> 10
Cc1cccc(Nc2cc(Cl)nc(SCC(=O)O)n2)c1C [Pirinixic acid]	> 10
C[C@]12C=CC(=O)C=C1CC[C@@H]1[C@@H]2[C@@H](O)C[C@@]2(C)[C@H]1CC[C@]2(O)C(=O)CO [Prednisolone]	0.0525
C=CCN(C)CCCCCCOc1ccc(C(=O)c2ccc(Br)cc2)c(F)c1.O=C(O)/C=C/C(=O)O [Ro 48-8071 fumarate]	1.79

What follows are compounds tested on HEL. Conditions: 72 h.
In short: as §1

Structure (SMILES)	IC50 (cell viability) [µM]
CN(Cc1cnc2nc(N)nc(N)c2n1)c1ccc(C(=O)N[C@@H](CCC(=O)O)C(=O)O)cc1 [Methotrexate]	0.0037
COC(=O)c1cc2c(C(F)(F)F)cc(-c3ccccc3)cc2n1O [NHI-2]	> 10
CCCCCCCC/C=C\CCCCCCCC(=O)Nc1ccccc1 [Octadec-9-Enoic Acid Phenylamide]	> 10
CC[C@H](C)[C@H](N)C(=O)N1CCSC1 [P32/98]	> 10
CC(=O)Nc1nc(C)c(-c2ccc(Cl)c(S(=O)(=O)NCCO)c2)s1 [PIK93]	2.19
OC[C@H]1O[C@@H](n2cnc3c2N=CNC[C@H]3O)C[C@@H]1O [Pentostatin]	> 10
CC(C)CC(=O)N[C@H](C(=O)N[C@H](C(=O)N[C@@H](CC(C)C)[C@@H](O)CC(=O)N[C@@H](C)C(=O)N[C@@H](CC(C)C)[C@@H](O)CC(=O)O)C(C)C)C(C)C [Pepstatin A]	> 10
Cc1cccc(Nc2cc(Cl)nc(SCC(=O)O)n2)c1C [Pirinixic acid]	> 10
C[C@]12C=CC(=O)C=C1CC[C@@H]1[C@@H]2[C@@H](O)C[C@@]2(C)[C@H]1CC[C@]2(O)C(=O)CO [Prednisolone]	> 10
C=CCN(C)CCCCCCOc1ccc(C(=O)c2ccc(Br)cc2)c(F)c1.O=C(O)/C=C/C(=O)O [Ro 48-8071 fumarate]	> 10

These compounds were tested on HL-60. Conditions: 72 h.
In short: as §1

Structure (SMILES)	IC50 (cell viability) [µM]
CN(Cc1cnc2nc(N)nc(N)c2n1)c1ccc(C(=O)N[C@@H](CCC(=O)O)C(=O)O)cc1 [Methotrexate]	0.00701
COC(=O)c1cc2c(C(F)(F)F)cc(-c3ccccc3)cc2n1O [NHI-2]	> 10
CCCCCCCC/C=C\CCCCCCCC(=O)Nc1ccccc1 [Octadec-9-Enoic Acid Phenylamide]	> 10
CC[C@H](C)[C@H](N)C(=O)N1CCSC1 [P32/98]	> 10
CC(=O)Nc1nc(C)c(-c2ccc(Cl)c(S(=O)(=O)NCCO)c2)s1 [PIK93]	0.935
OC[C@H]1O[C@@H](n2cnc3c2N=CNC[C@H]3O)C[C@@H]1O [Pentostatin]	> 10
CC(C)CC(=O)N[C@H](C(=O)N[C@H](C(=O)N[C@@H](CC(C)C)[C@@H](O)CC(=O)N[C@@H](C)C(=O)N[C@@H](CC(C)C)[C@@H](O)CC(=O)O)C(C)C)C(C)C [Pepstatin A]	> 10
Cc1cccc(Nc2cc(Cl)nc(SCC(=O)O)n2)c1C [Pirinixic acid]	> 10
C[C@]12C=CC(=O)C=C1CC[C@@H]1[C@@H]2[C@@H](O)C[C@@]2(C)[C@H]1CC[C@]2(O)C(=O)CO [Prednisolone]	> 10
C=CCN(C)CCCCCCOc1ccc(C(=O)c2ccc(Br)cc2)c(F)c1.O=C(O)/C=C/C(=O)O [Ro 48-8071 fumarate]	5.92

These compounds were tested on K-562. Conditions: 72 h.
In short: as §1

Structure (SMILES)	IC50 (cell viability) [µM]
CN(Cc1cnc2nc(N)nc(N)c2n1)c1ccc(C(=O)N[C@@H](CCC(=O)O)C(=O)O)cc1 [Methotrexate]	0.033
COC(=O)c1cc2c(C(F)(F)F)cc(-c3ccccc3)cc2n1O [NHI-2]	> 10
CCCCCCCC/C=C\CCCCCCCC(=O)Nc1ccccc1 [Octadec-9-Enoic Acid Phenylamide]	> 10
CC[C@H](C)[C@H](N)C(=O)N1CCSC1 [P32/98]	> 10
CC(=O)Nc1nc(C)c(-c2ccc(Cl)c(S(=O)(=O)NCCO)c2)s1 [PIK93]	2.66
OC[C@H]1O[C@@H](n2cnc3c2N=CNC[C@H]3O)C[C@@H]1O [Pentostatin]	> 10
CC(C)CC(=O)N[C@H](C(=O)N[C@H](C(=O)N[C@@H](CC(C)C)[C@@H](O)CC(=O)N[C@@H](C)C(=O)N[C@@H](CC(C)C)[C@@H](O)CC(=O)O)C(C)C)C(C)C [Pepstatin A]	> 10
Cc1cccc(Nc2cc(Cl)nc(SCC(=O)O)n2)c1C [Pirinixic acid]	> 10
C[C@]12C=CC(=O)C=C1CC[C@@H]1[C@@H]2[C@@H](O)C[C@@]2(C)[C@H]1CC[C@]2(O)C(=O)CO [Prednisolone]	> 10
C=CCN(C)CCCCCCOc1ccc(C(=O)c2ccc(Br)cc2)c(F)c1.O=C(O)/C=C/C(=O)O [Ro 48-8071 fumarate]	2.06

These compounds were tested on KCL-22. Conditions: 72 h.
In short: as §1

Structure (SMILES)	IC50 (cell viability) [µM]
CN(Cc1cnc2nc(N)nc(N)c2n1)c1ccc(C(=O)N[C@@H](CCC(=O)O)C(=O)O)cc1 [Methotrexate]	0.0126
COC(=O)c1cc2c(C(F)(F)F)cc(-c3ccccc3)cc2n1O [NHI-2]	> 10
CCCCCCCC/C=C\CCCCCCCC(=O)Nc1ccccc1 [Octadec-9-Enoic Acid Phenylamide]	> 10
CC[C@H](C)[C@H](N)C(=O)N1CCSC1 [P32/98]	> 10
CC(=O)Nc1nc(C)c(-c2ccc(Cl)c(S(=O)(=O)NCCO)c2)s1 [PIK93]	1.12
OC[C@H]1O[C@@H](n2cnc3c2N=CNC[C@H]3O)C[C@@H]1O [Pentostatin]	> 10
CC(C)CC(=O)N[C@H](C(=O)N[C@H](C(=O)N[C@@H](CC(C)C)[C@@H](O)CC(=O)N[C@@H](C)C(=O)N[C@@H](CC(C)C)[C@@H](O)CC(=O)O)C(C)C)C(C)C [Pepstatin A]	> 10
Cc1cccc(Nc2cc(Cl)nc(SCC(=O)O)n2)c1C [Pirinixic acid]	> 10
C[C@]12C=CC(=O)C=C1CC[C@@H]1[C@@H]2[C@@H](O)C[C@@]2(C)[C@H]1CC[C@]2(O)C(=O)CO [Prednisolone]	0.524
C=CCN(C)CCCCCCOc1ccc(C(=O)c2ccc(Br)cc2)c(F)c1.O=C(O)/C=C/C(=O)O [Ro 48-8071 fumarate]	> 10

These compounds were tested on KG-1. Conditions: 72 h.
In short: as §1

Structure (SMILES)	IC50 (cell viability) [µM]
CN(Cc1cnc2nc(N)nc(N)c2n1)c1ccc(C(=O)N[C@@H](CCC(=O)O)C(=O)O)cc1 [Methotrexate]	> 10
COC(=O)c1cc2c(C(F)(F)F)cc(-c3ccccc3)cc2n1O [NHI-2]	> 10
CCCCCCCC/C=C\CCCCCCCC(=O)Nc1ccccc1 [Octadec-9-Enoic Acid Phenylamide]	> 10
CC[C@H](C)[C@H](N)C(=O)N1CCSC1 [P32/98]	> 10
CC(=O)Nc1nc(C)c(-c2ccc(Cl)c(S(=O)(=O)NCCO)c2)s1 [PIK93]	2.56
OC[C@H]1O[C@@H](n2cnc3c2N=CNC[C@H]3O)C[C@@H]1O [Pentostatin]	> 10
CC(C)CC(=O)N[C@H](C(=O)N[C@H](C(=O)N[C@@H](CC(C)C)[C@@H](O)CC(=O)N[C@@H](C)C(=O)N[C@@H](CC(C)C)[C@@H](O)CC(=O)O)C(C)C)C(C)C [Pepstatin A]	> 10
Cc1cccc(Nc2cc(Cl)nc(SCC(=O)O)n2)c1C [Pirinixic acid]	> 10
C[C@]12C=CC(=O)C=C1CC[C@@H]1[C@@H]2[C@@H](O)C[C@@]2(C)[C@H]1CC[C@]2(O)C(=O)CO [Prednisolone]	> 10
